Like-named read-outs stand apart in the source and are kept apart here.
Target: T1, human CCR7 (Homo sapiens, UniProt P32248)
T1 construct: expressed in transfected cells
T1 sequence (P32248 25-378): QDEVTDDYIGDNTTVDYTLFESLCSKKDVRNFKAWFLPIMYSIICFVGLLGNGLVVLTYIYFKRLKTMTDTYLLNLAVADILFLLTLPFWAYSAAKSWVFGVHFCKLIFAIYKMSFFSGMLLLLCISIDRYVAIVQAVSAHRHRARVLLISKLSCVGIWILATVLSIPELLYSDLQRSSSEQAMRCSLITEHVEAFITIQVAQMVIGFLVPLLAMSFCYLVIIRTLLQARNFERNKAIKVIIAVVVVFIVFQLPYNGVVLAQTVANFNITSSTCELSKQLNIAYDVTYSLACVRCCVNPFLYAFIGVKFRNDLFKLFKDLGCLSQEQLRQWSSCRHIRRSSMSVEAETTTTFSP
Experiment: CCL19-induced calcium mobilization assay, U87.CD4 cells expressing CCR7
Format: cell-based
Settings: for IC50: read-out: IC50 [μM] block CCL19 induced calcium signaling
Procedure, shortened: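 Calcium mobilization was recorded in U87.CD4 cells stably carrying human CXCR2 (stimulated with CXCL8), CCR7 (stimulated with CCL19) or CCR5. Cells were plated at 20,000 cells/well, cultured overnight at 37°C in 5% CO2, and incubated 45 min at room temperature in the dark before reading.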

[1] = CCL19-induced calcium signaling
[2] = classification of tested compounds as decoy or active
[3] = CCL19 induced calcium signaling
[4] = classification as decoy or active on CCR7

Row | SMILES | IC50 [1] [µM] | Decoy – 0 Active – 1 [2] | IC50 [3] [µM] | Decoy – 0 Active – 1 [4]
1 | Cc1cnn(C[C@@H]2CCCN2C(=O)[C@H](C(C)C)n2cncn2)c1 [C143, Cc1cnn(C[C@@H]2CCCN2C(=O)[C@H](C(C)C)n2cncn2)c1] | > 50 | 0 | – | –
2 | CCN(Cc1ccc(Cl)cc1)Cc1cc(=O)c2cccc(F)c2[nH]1 [C278, CCN(Cc1ccc(Cl)cc1)Cc1cc(=O)c2cccc(F)c2[nH]1] | – | – | > 50 | 0
3 | Cc1cccnc1C1(CNc2cc(N3CCC[C@H](CO)C3)ncn2)CC1 [C080, Cc1cccnc1C1(CNc2cc(N3CCC[C@H](CO)C3)ncn2)CC1] | > 50 | 0 | – | –
4 | CN(C)C(=O)c1cc(NC(=O)NCC(C)(C)c2ccccc2)ccn1 [C129, CN(C)C(=O)c1cc(NC(=O)NCC(C)(C)c2ccccc2)ccn1] | > 50 | 0 | – | –
5 | CCc1ccc(C(NC(=O)C(=O)Nc2cccnc2C)C(C)(C)C)o1 (centres unmarked) [C069, CCc1ccc(C(NC(=O)C(=O)Nc2cccnc2C)C(C)(C)C)o1] | > 10 | 0 | – | –
6 | O=S1(=O)N=C(NCc2ccccn2)c2ccccc21 [C149, O=S1(=O)N=C(NCc2ccccn2)c2ccccc21] | > 50 | 0 | – | –
7 | Cc1ccc(CNC(=O)c2nnc(-c3ccc(S(=O)(=O)N(C)C)cc3)o2)o1 [C088, Cc1ccc(CNC(=O)c2nnc(-c3ccc(S(=O)(=O)N(C)C)cc3)o2)o1] | > 50 | 0 | – | –
8 | CC1CN(Cc2ccccc2)CCC1N(C)CC(=O)NC12CC3CC(CC(C3)C1)C2 (centres unmarked) [C281, CC1CN(Cc2ccccc2)CCC1N(C)CC(=O)NC12CC3CC(CC(C3)C1)C2] | – | – | > 50 | 0
9 | O=C(O)c1ccc(CNC(=O)C2(c3ccc(Cl)cc3)CCC2)o1 [C185, O=C([O-])c1ccc(CNC(=O)C2(c3ccc(Cl)cc3)CCC2)o1] | – | – | > 50 | 0
10 | CN(C)CC(C)(C)CNC(=O)C(=O)Nc1cccc(C(=O)N(C)C)c1 [C070, CN(C)C(=O)c1cccc(NC(=O)C(=O)NCC(C)(C)C[NH+](C)C)c1] | > 10 | 0 | – | –
11 | O=C(NCC(O)(c1ccccc1)C(F)(F)F)c1cc(=O)c2ccccc2o1 (centres unmarked) [C208, O=C(NCC(O)(c1ccccc1)C(F)(F)F)c1cc(=O)c2ccccc2o1] | – | – | > 50 | 0
12 | FC(F)(F)c1cc(CNC(=S)NCc2ccccc2)cc(C(F)(F)F)c1 [C050, S=C(NCC1=CC=CC=C1)NCC2=CC(C(F)(F)F)=CC(C(F)(F)F)=C2] | > 50 | 0 | – | –
13 | CN(C)C(=O)c1cccc(NC(=O)NCCc2ccccn2)c1 [C076, CN(C)C(=O)c1cccc(NC(=O)NCCc2ccccn2)c1] | > 10 | 0 | – | –
14 | CC1CCCCN1C(=O)CNc1ccc(Cl)c(C(=O)N(C)C)c1 (centres unmarked) [C073, CC1CCCCN1C(=O)CNc1ccc(Cl)c(C(=O)N(C)C)c1] | > 10 | 0 | – | –
15 | C[C@@H](CNC(=O)N[C@H]1CCO[C@@H](C2CC2)C1)c1ccsc1 [C109, C[C@@H](CNC(=O)N[C@H]1CCO[C@@H](C2CC2)C1)c1ccsc1] | > 50 | 0 | – | –
16 | Cc1cccc([C@H](NC(=O)c2cc(-c3ccccc3F)n[nH]2)C2CC2)n1 [C136, Cc1cccc([C@H](NC(=O)c2cc(-c3ccccc3F)n[nH]2)C2CC2)n1] | > 50 | 0 | – | –
17 | CN(C)CCNC(=S)Nc1cc(C(F)(F)F)cc(C(F)(F)F)c1 [C041, S=C(NCCN(C)C)NC1=CC(C(F)(F)F)=CC(C(F)(F)F)=C1] | > 50 | 0 | – | –
18 | Cc1cccc(C)c1NC(=O)c1cc(S(N)(=O)=O)c(Cl)cc1O [C179, Cc1cccc(C)c1NC(=O)c1cc(S(N)(=O)=O)c(Cl)cc1O] | – | – | > 50 | 0
19 | COc1ccc(S(=O)(=O)N(CC(=O)N2CCN(C)CC2)Cc2ccccc2)cc1C [C242, Cc1cc(ccc1OC)S(=O)(=O)N(Cc2ccccc2)CC(=O)N3CC[NH+](CC3)C] | – | – | > 50 | 0
20 | O=C(O[C@@H]1CS(=O)(=O)C[C@@H]1Nc1ccccc1)c1ccccc1 [C123, O=C(O[C@@H]1CS(=O)(=O)C[C@@H]1Nc1ccccc1)c1ccccc1] | > 50 | 0 | – | –

Row | SMILES | IC50 [1] [µM] | Decoy – 0 Active – 1 [2] | IC50 [3] [µM] | Decoy – 0 Active – 1 [4]
21 | O=C(O)CN1C(=O)NC2(CCCc3ccccc32)C1=O (centres unmarked) [C199, O=C([O-])CN1C(=O)NC2(CCCc3ccccc32)C1=O] | – | – | > 50 | 0
22 | O=C(CCCc1ccccc1)N[C@H]1CCN(CC(F)(F)F)C1=O [C096, O=C(CCCc1ccccc1)N[C@H]1CCN(CC(F)(F)F)C1=O] | > 50 | 0 | – | –
23 | CC1CC(C)CN(C(=O)c2ccccc2NS(=O)(=O)c2ccc3[nH]c(=O)[nH]c3c2)C1 (centres unmarked) [C257, CC1CC(CN(C1)C(=O)c2ccccc2NS(=O)(=O)c3ccc4c(c3)[nH]c(=O)[nH]4)C] | – | – | > 50 | 0
24 | Cc1ccc(NCC(=O)NCc2ccco2)cc1C(=O)N(C)C [C057, Cc1ccc(NCC(=O)NCc2ccco2)cc1C(=O)N(C)C] | > 10 | 0 | – | –
25 | O=C(NCc1ccccc1F)N1CCC(c2ccc3c(c2)OCO3)C(O)C1 (centres unmarked) [C180, O=C(NCc1ccccc1F)N1CCC(c2ccc3c(c2)OCO3)C(O)C1] | – | – | > 50 | 0
26 | NC(=O)Nc1cccc(C(=O)NCc2ccccc2Cl)c1 [C173, NC(=O)Nc1cccc(C(=O)NCc2ccccc2Cl)c1] | – | – | > 50 | 0
27 | CC[C@H](NC(=O)N(CCO)Cc1ccc(F)cc1)c1nc(C)no1 [C163, CC[C@H](NC(=O)N(CCO)Cc1ccc(F)cc1)c1nc(C)no1] | – | – | > 50 | 0
28 | Cc1nc[nH]c1C(=O)NC1CC(=O)N(Cc2cccc3ccccc23)C1 (centres unmarked) [C276, Cc1nc[nH]c1C(=O)NC1CC(=O)N(Cc2cccc3ccccc23)C1] | – | – | > 50 | 0
29 | COC(=O)c1ccccc1Nc1c(NCc2ccc(OC)cc2)c(=O)c1=O [C011, COC(=O)c1ccccc1Nc1c(NCc2ccc(OC)cc2)c(=O)c1=O] | > 50 | 0 | – | –
30 | N=C(Nc1ccc(Br)cc1)C(N)=Nc1ccc(Br)cc1 [C077, NC(=[NH+]c1ccc(Br)cc1)C(=[NH2+])Nc1ccc(Br)cc1] | > 10 | 0 | – | –
31 | Cc1ccc(S(=O)(=O)N(C)c2ccccc2C(=O)NCc2ccco2)cc1 [C240, Cc1ccc(cc1)S(=O)(=O)N(C)c2ccccc2C(=O)NCc3ccco3] | – | – | > 50 | 0
32 | O=C(Nc1nc2c(s1)C(=O)CC(C(=O)NC1CCCc3ccccc31)C2)c1ccncc1 (centres unmarked) [C225, O=C(Nc1nc2c(s1)C(=O)CC(C(=O)NC1CCCc3ccccc31)C2)c1ccncc1] | – | – | > 50 | 0
33 | CN(C)[C@@H]1CCCC[C@H]1NC(=S)Nc1cc(C(F)(F)F)cc(C(F)(F)F)c1 [C039, S=C(N[C@H]1[C@H](N(C)C)CCCC1)NC2=CC(C(F)(F)F)=CC(C(F)(F)F)=C2] | > 50 | 0 | – | –
34 | C[S@+]([O-])c1cccc(NC(=O)NCC2(c3cccc(F)c3)CC2)c1 [C130, C[S@](=O)c1cccc(NC(=O)NCC2(c3cccc(F)c3)CC2)c1] | > 50 | 0 | – | –
35 | CN(C)C(=O)c1ccc(CN2CCCC[C@H]2CCn2cccn2)o1 [C105, CN(C)C(=O)c1ccc(C[N@H+]2CCCC[C@H]2CCn2cccn2)o1] | > 50 | 0 | – | –
36 | Cn1c(C2CC(=O)N(c3cccc(C(F)(F)F)c3)C2)nc2ccccc21 (centres unmarked) [C194, Cn1c(C2CC(=O)N(c3cccc(C(F)(F)F)c3)C2)nc2ccccc21] | – | – | > 50 | 0
37 | Cc1ccc(C(=O)NC2CCC(=O)NC2C)cc1N1CCOCC1 (centres unmarked) [C211, Cc1ccc(C(=O)NC2CCC(=O)NC2C)cc1N1CCOCC1] | – | – | > 50 | 0
38 | O=C1CC(C(=O)N2CCCC2c2ccccc2)CN1Cc1cccnc1 (centres unmarked) [C228, O=C1CC(C(=O)N2CCCC2c2ccccc2)CN1Cc1cccnc1] | – | – | > 50 | 0
39 | Cc1ccc(S(=O)(=O)C(CNS(=O)(=O)c2ccc(F)cc2)c2cccnc2)cc1 (centres unmarked) [C262, Cc1ccc(cc1)S(=O)(=O)C(CNS(=O)(=O)c2ccc(cc2)F)c3cccnc3] | – | – | > 50 | 0
40 | CNC(=O)CN(c1ccc(Cl)cc1)S(=O)(=O)c1ccc(OC)c(OC)c1 [C270, CNC(=O)CN(c1ccc(cc1)Cl)S(=O)(=O)c2ccc(c(c2)OC)OC] | – | – | > 50 | 0

— paper PMC8972196, “A Set of Experimentally Validated Decoys for the Human CC Chemokine Receptor 7 (CCR7) Obtained by Virtual Screening” (Frontiers in Pharmacology, 2022)
